We go through five compounds from US10662194B2, “Substituted 6-anilino-9-heterocyclylpurine derivatives for inhibition of plant stress” (UNIVERZITA PALACKEHO V OLOMOUCI, priority 2014, dated 2020).

The target of one test is T1, recombinant AtCKX2 (Arabidopsis thaliana, UniProt Q9FUJ3).
T1 construct: made in house; host or cells: S. cerevisiae strain 23344c ura-
T1 sequence (Q9FUJ3 23-501): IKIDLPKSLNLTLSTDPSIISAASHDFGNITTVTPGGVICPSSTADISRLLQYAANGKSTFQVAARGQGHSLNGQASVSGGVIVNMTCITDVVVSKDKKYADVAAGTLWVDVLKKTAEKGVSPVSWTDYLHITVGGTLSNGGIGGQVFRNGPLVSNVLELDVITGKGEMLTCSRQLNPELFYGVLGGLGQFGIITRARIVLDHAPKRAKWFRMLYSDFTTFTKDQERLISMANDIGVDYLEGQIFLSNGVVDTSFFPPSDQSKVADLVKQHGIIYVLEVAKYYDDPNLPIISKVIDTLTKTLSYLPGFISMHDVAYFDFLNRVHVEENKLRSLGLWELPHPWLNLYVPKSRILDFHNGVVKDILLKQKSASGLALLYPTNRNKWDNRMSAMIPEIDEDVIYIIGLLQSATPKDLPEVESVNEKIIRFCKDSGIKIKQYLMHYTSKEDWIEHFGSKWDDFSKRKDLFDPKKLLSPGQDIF
Briefly: Inhibition of cytokinin oxidase/dehydrogenase activity (PMS/MTT microtitre assay). It counts as biochemical. As for the experimental part:
IC50 measurements were done using the assay in microtitre plate. Each well contained 100 μL of PMS/MTT [phenazine methosulfate/3-(4,5-dimethylthiazol-2-yl)-2,5-diphenyltetrazolium bromide] reaction mixture (final concentrations: 0.1 M KH2PO4, pH 7.4, 1 mM MTT, 0.2 mM PMS) containing the tested compound (3×10^−7 M-3×10^−4 M) and 30 μM N^6-isopentenyladenine (iP) as a substrate. 100 μL of cell-free growth medium of S. cerevisiae strain 23344c ura^− harboring the plasmid pYES2-AtCKX2 was directly used as a source of AtCKX2. Plates were incubated in the dark for 30 min at 37° C. and the enzymatic reaction was stopped by 25 μL of 35% acetic acid. The absorbance at 578 nm was measured using spectrophotometer Tecan. Absorbance of the sample without iP was subtracted.
The IC50 value, the compound concentration that inhibits the enzyme activity to 50%, was calculated from the obtained dose response curves. The values shown in Table 7 are means of three replicates and the entire test was repeated at least twice. […] Compound 12 is an effective inhibitor of AtCKX2 activity, app. 3-times stronger that thidiazuron and only app. 3-times weaker than the structurally related compound INCYDE (2-chloro-6-(3-methoxyanilino)purine).
Background: Formazan colour is commonly taken as a measure of viable cells.

The test system of test [1] is wild-type Arabidopsis plants. The test is described as follows: In vitro root growth of wild-type Arabidopsis plants. Type of test: in vivo. The note with it: 0.1 μM in MS medium, FIG. 6. How it is done: As shown in previous example presence of compound 12 in the growth medium has positive effect on the root growth of cytokinin-deficient Arabidopsis plants. This effect was further studied using wild-type Arabidopsis plants and compared with biologically and structurally relevant compounds, a cytokinin BAP and a CKX inhibitor INCYDE. […] Arabidopsis seedlings were grown in vitro on a standard MS medium containing 0.1 μM cytokinin BAP, the same concentration of compound 12 and the same concentration of CKX inhibitor INCYDE (2-chloro-6-(3-methoxyanilino)purine).

Test [2] has as its system CKX1 overproducing (35S:CKX1) Arabidopsis seedlings. Briefly: In vitro shoot and root growth of cytokinin deficient Arabidopsis plants. It counts as in vivo. The note with it: for complementation of wild type shoot phenotype: 0.1 μM in MS medium, FIG. 3, 4. The source says:
Constitutive overexpression of CKX in 35S:CKX1 plants leads to enhanced root growth. If CKX inhibitor can restore WT phenotype, it is expected that inhibition of the CKX activity in 35S:AtCKX1 plants should thus have no effect or inhibit their root growth. Such observation was done in case of INCYDE, but not compound 12.

Another test concerns ARR5:GUS reporter gene. Briefly: Induction of cytokinin reporter ARR5:GUS in transgenic Arabidopsis plants. The settings on record: 0.01-10 μM, 17 h, FIG. 2. Type of test: in vivo. How it is done:
Cytokinins induce in Arabidopsis transcription of gene ARR5, a member of A-type response regulator family classified as cytokinin primary response genes being expressed down-stream of sensing by cytokinin receptors. We cultivated transgenic Arabidopsis plants harbouring PARR5::GUS reporter (D'Agostino et al. Plant Physiol. 124: 1706-1717, 2000) in MS medium containing cytokinin BAP, CKX inhibitor INCYDE and novel compounds 12 and 91 in concentrations 0.01, 0.1, 1, 5, 10 μM; DMSO (0.1%) was tested as solvent control. Seeds were surface-sterilized in 70% ethanol and then placed into wells of 6-well microtiter plate (TPP, Switzerland) containing 3 mL of MS medium in each well. After sowing plates were pretreated in dark at 4° C. to synchronize the germination of the seeds. […] Quantitative estimation of the level of ARR5:GUS gene induction was done according to method published by Romanov et al. (Romanov et al. FEBS Letters 515: 39-43, 2002). After extraction of proteins the GUS activity was determined using incubation with fluorogenic substrate MUG (4-methylumbelliferyl glucuronid; 1 h, 37° C.) and then fluorescence 365 nm and 460 nm (excitation and emission wavelengths) was recorded, as described in detail by Spíchal et al. (Spíchal et al. Plant and Cell Physiology 45: 1299-1305, 2004).

The next test concerns the target T2, AHK3 (Arabidopsis thaliana, UniProt Q9C5U1).
T2 construct: expressed in transfected cells; host or cells: Escherichia coli strain KMI001
T2 sequence (Q9C5U1 1-1036): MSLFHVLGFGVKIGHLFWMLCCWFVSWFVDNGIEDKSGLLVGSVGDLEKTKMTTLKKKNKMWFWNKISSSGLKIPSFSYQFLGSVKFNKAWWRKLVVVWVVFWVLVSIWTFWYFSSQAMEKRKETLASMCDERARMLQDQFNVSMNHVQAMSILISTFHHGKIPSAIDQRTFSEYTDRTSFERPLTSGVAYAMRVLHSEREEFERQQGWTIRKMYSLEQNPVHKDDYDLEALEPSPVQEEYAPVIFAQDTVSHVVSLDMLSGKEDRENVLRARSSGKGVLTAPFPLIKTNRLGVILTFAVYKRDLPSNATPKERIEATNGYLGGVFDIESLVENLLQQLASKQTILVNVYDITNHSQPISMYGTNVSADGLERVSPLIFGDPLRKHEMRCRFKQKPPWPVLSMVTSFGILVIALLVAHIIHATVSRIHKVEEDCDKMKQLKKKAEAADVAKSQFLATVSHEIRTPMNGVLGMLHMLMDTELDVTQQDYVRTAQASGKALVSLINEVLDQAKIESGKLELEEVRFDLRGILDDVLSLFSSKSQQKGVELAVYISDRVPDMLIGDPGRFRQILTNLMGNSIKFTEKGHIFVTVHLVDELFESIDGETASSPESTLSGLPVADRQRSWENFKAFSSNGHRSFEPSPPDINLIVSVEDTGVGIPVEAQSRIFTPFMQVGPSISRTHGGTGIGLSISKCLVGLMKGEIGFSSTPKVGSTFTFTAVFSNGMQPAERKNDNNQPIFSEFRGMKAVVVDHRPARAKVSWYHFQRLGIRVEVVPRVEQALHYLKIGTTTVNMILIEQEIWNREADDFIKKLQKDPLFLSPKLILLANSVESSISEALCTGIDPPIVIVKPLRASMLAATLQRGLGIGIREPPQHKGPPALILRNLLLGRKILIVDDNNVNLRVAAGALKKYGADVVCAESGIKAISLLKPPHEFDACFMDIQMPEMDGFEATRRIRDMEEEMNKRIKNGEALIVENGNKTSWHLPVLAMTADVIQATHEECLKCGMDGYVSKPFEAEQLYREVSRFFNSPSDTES
The test is described as follows: Escherichia coli cytokinin receptor activation assay (AHK3). The settings on record: 10^−7 M-5×10^−5 M, compared to trans-zeatin, FIG. 1. Type of test: cell-based. As for the experimental part:
(§1) Escherichia coli strains KMI001 harbouring the plasmid pIN-III-AHK4 or pSTV28-AHK3 were grown overnight at 25° C. in M9 media enriched with 0.1% casamino acids to OD600˜1. The preculture was diluted 1:600 in 1 ml M9 medium containing 0.1% casamino acids and 1 μL stock solution of either the tested compound (10^−7 M-5×10^−5 M) or solvent control (DMSO, ethanol, methanol) were added. The cultures were further grown at 25° C. in microtiter plate, 200 μL per well. […] The cultures were centrifuged and 50 μL aliquots of the supernatant were transferred to microtiter plate containing 2 μL 50 mM 4-methyl umbelliferyl galactoside which was subsequently incubated for 1 h at 37° C. The reaction was stopped by adding 100 μL 0.2 M Na2CO3. Fluorescence was measured using a Fluoroscan Ascent (Labsystems, Finland) at the excitation and emission wavelengths of 365 and 460 nm, respectively. The OD600 of remaining culture was determined and β-galactosidase activity was calculated as nmol 4-methylumbelliferone×OD600^−1×h^−1.

In another test the target is T3, CRE1/AHK4 (Arabidopsis thaliana, UniProt Q9C5U0).
T3 construct: expressed in transfected cells; host or cells: Escherichia coli strain KMI001
The test is described as follows: Escherichia coli cytokinin receptor activation assay (CRE1/AHK4). It counts as cell-based. The note with it: 10^−7 M-5×10^−5 M, compared to trans-zeatin, FIG. 1. How it is done:
as §1

[3] abbreviates: 30 μM iP substrate, 30 min, 37° C., read-out: IC50.

For orientation: IC50 means the concentration needed to halve the response being measured.

Where two headings read alike, the source gives them in different places.

T3 sequence (Q9C5U0 whole entry): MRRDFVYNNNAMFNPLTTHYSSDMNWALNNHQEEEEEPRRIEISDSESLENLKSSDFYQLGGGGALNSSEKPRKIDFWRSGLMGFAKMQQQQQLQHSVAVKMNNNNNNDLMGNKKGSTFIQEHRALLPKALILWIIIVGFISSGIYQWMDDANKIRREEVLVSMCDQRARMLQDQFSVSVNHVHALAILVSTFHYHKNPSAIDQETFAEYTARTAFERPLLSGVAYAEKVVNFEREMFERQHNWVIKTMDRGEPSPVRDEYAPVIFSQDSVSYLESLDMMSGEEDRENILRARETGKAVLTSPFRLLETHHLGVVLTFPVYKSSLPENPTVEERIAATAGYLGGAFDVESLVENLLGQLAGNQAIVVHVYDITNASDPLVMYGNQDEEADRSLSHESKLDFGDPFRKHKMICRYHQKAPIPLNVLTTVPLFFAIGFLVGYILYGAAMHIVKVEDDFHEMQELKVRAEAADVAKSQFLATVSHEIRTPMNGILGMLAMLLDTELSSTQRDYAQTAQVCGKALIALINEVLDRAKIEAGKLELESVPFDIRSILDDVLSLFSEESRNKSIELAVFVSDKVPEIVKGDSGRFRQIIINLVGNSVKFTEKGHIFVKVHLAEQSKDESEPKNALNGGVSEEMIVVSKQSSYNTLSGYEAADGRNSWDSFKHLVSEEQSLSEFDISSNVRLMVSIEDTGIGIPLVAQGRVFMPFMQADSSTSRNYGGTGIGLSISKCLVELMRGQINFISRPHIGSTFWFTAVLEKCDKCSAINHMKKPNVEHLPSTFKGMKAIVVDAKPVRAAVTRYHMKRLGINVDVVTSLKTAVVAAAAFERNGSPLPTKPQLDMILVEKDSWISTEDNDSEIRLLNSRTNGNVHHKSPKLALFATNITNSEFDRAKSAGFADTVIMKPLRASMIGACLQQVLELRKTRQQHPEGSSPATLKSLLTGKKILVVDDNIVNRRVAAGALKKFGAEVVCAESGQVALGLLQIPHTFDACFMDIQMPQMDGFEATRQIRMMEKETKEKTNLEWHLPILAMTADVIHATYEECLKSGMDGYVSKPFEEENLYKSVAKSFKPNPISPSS

As for `O=C(Nc1ccccc1)Nc1cnns1` [thidiazuron, reference compound], the half-maximal inhibitory concentration (IC50) at recombinant AtCKX2 is 55 µM.
As to `COc1cccc(Nc2nc(Cl)nc3nc[nH]c23)c1` [INCYDE, 2-chloro-6-(3-methoxyanilino)purine], the 50% inhibitory concentration (IC50) on recombinant AtCKX2 (setting [3]) was determined as 6.7 µM. In test [1], the root growth entry is “inhibited root growth”. Besides, the “complementation of wild type shoot phenotype” value in test [2] is reported as “led to restauration of wild type shoot phenotype”. The “root biomass of 35S:CKX1 plants” value in test [2] (tested concentration range, FIG. 5) is on record as “did not influence the root biomass”.
For the compound `COc1cccc(Nc2nc(F)nc3[nH]cnc23)c1` [INCYDE-F, 2-fluoro-6-(3-methoxyanilino)purine, reference compound], the 50% inhibitory concentration (IC50) at recombinant AtCKX2 (setting [3]) is 5.2 µM.
For `c1ccc(CNc2ncnc3nc[nH]c23)cc1` [BAP, 6-benzylaminopurine], the root growth result in test [1] is on record as “inhibited root growth”. In test [2], the “complementation of wild type shoot phenotype” value is given as “cannot be reached”.
In the case of `COc1cccc(Nc2nc(F)nc3c2ncn3C2CCCCO2)c1` (stereo not drawn) [compound 91, 2-fluoro-6-(3-methoxyanilino)-9-(tetrahydropyran-2-yl)purine], the “induction of ARR5:GUS expression” value in the test on ARR5:GUS reporter gene is reported as “dose-dependent induction of ARR5:GUS expression”. Moreover, the half-inhibitory concentration (IC50) on recombinant AtCKX2 (setting [3]) came out at 380 µM. The “ability to activate cytokinin receptor AHK3” value on AHK3 is on record as “do not activate any of the receptors”. Also, on CRE1/AHK4, the “ability to activate cytokinin receptor CRE1/AHK4” value was “do not activate any of the receptors”.
